Results reported in PubChem BioAssay AID248 (DTP/NCI, 2004).
Where “and” joins values, the source holds several entries; their conditions need not be identical. Equal entries are not always repeated. Toxic doses and inconclusive results are not listed. Cut-off read from the data, not from the text of the source: active = T/C of 150% or more; inactive = T/C below 125%.

Test system: L1210 leukemia ip in BDF1 mice, survival T/C
Assay: NCI In Vivo Anticancer Drug Screen. Data for tumor model L1210 Leukemia (intraperitoneal) in B6D2F1 (BDF1) mice
Details: endpoint: mean survival time, higher = longer survival
Procedure, shortened: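 Antitumor effect is assessed in tumor-bearing animals. Survival in the compound arm is compared with a vehicle-dosed control arm and expressed as their quotient.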

[1] = dose: 100.0 mg/kg/injection, schedule: Q04DX002 (ip), vehicle: Klucel (hydroxypropylcellulose) (HPC)
[2] = dose: 200.0 mg/kg/injection, schedule: Q04DX002 (ip), vehicle: Klucel (hydroxypropylcellulose) (HPC)
[3] = dose: 400.0 mg/kg/injection, schedule: Q04DX002 (ip), vehicle: Klucel (hydroxypropylcellulose) (HPC)
[4] = dose: 25.0 mg/kg/injection, schedule: Q04DX002 (ip), vehicle: saline
[5] = dose: 50.0 mg/kg/injection, schedule: Q04DX002 (ip), vehicle: saline
[6] = dose: 100.0 mg/kg/injection, schedule: Q01DX001 (ip), vehicle: saline
[7] = dose: 200.0 mg/kg/injection, schedule: Q01DX001 (ip), vehicle: saline
[8] = dose: 400.0 mg/kg/injection, schedule: Q01DX001 (ip), vehicle: saline
[9] = dose: 100.0 mg/kg/injection, schedule: Q01DX009 (ip), vehicle: saline with Tween-80
[10] = dose: 100.0 mg/kg/injection, schedule: Q04DX003 (ip), vehicle: saline with Tween-80
[11] = dose: 200.0 mg/kg/injection, schedule: Q01DX009 (ip), vehicle: saline with Tween-80
[12] = dose: 200.0 mg/kg/injection, schedule: Q04DX003 (ip), vehicle: saline with Tween-80
[13] = dose: 400.0 mg/kg/injection, schedule: Q04DX003 (ip), vehicle: saline with Tween-80
[14] = dose: 100.0 mg/kg/injection, schedule: Q01DX001 (ip), vehicle: saline with Tween-80
[15] = dose: 200.0 mg/kg/injection, schedule: Q01DX001 (ip), vehicle: saline with Tween-80
[16] = dose: 400.0 mg/kg/injection, schedule: Q01DX001 (ip), vehicle: saline with Tween-80
[17] = dose: 100.0 mg/kg/injection, schedule: Q04DX002 (ip), vehicle: saline with Tween-80
[18] = dose: 400.0 mg/kg/injection, schedule: Q04DX002 (ip), vehicle: saline with Tween-80
[19] = dose: 100.0 mg/kg/injection, schedule: Q01DX009 (ip), vehicle: Klucel (hydroxypropylcellulose) (HPC)
[20] = dose: 200.0 mg/kg/injection, schedule: Q01DX009 (ip), vehicle: Klucel (hydroxypropylcellulose) (HPC)
[21] = dose: 400.0 mg/kg/injection, schedule: Q01DX009 (ip), vehicle: Klucel (hydroxypropylcellulose) (HPC)

Measured: T/C

Nc1ccc(OC(=O)Nc2ccc(O)cc2)cc1
inactive: dose: 53.0 mg/kg/injection, schedule: Q01DX Z (ip), vehicle: other 94 % of control | dose: 80.0 mg/kg/injection, schedule: Q01DX Z (ip), vehicle: other 97 % of control | dose: 80.0 mg/kg/injection, schedule: Q01DX Z (ip), vehicle: saline 89 % of control | dose: 120.0 mg/kg/injection, schedule: Q01DX Z (ip), vehicle: other 105 % of control | dose: 180.0 mg/kg/injection, schedule: Q01DX Z (ip), vehicle: other 100 % of control | dose: 180.0 mg/kg/injection, schedule: Q01DX Z (ip), vehicle: saline 92 % of control | dose: 270.0 mg/kg/injection, schedule: Q01DX Z (ip), vehicle: other 102 % of control | dose: 270.0 mg/kg/injection, schedule: Q01DX Z (ip), vehicle: saline 93 % of control | dose: 404.0 mg/kg/injection, schedule: Q01DX Z (ip), vehicle: other 100 % of control | dose: 405.0 mg/kg/injection, schedule: Q01DX Z (ip), vehicle: saline 92 % of control

C=C1CC2OC(=O)C(=C)C2C(OC(=O)c2ccccc2)/C=C(\C)CCC1OC(=O)c1ccccc1 (stereo not drawn)
inactive: [1] 108 % of control | [2] 91 % of control | [3] 97 % of control

BrC1CC2OC2C2OC12 (stereo not drawn)
inactive: [4] 108 % of control | [5] 105 % of control | [6] 100 % of control | dose: 100.0 mg/kg/injection, schedule: Q04DX002 (ip), vehicle: saline 102 % of control

Clc1ccccc1-c1nc2ccccc2cc1Cl
inactive: [6] 92 % of control | [7] 88 % of control | [8] 94 % of control

O=C(OCc1ccccc1CN1CCCC1)c1ccc(Br)cc1
inactive: [1] 111 % of control | [2] 90 % of control | [3] 96 % of control

Cc1ccc(CN=C(N)CSS(=O)(=O)O)cc1C
inactive: [1] 97 % of control | [2] 101 % of control

CCOC(=O)C(C#N)c1ccccc1 (stereo not drawn)
inactive: dose: 50.0 mg/kg/injection, schedule: Q01DX001 (ip), vehicle: saline 96 % of control | [6] 100 % of control | [7] 100 % of control

COc1ccccc1Cl
inactive: [9] 94 % of control | [10] 106 % of control | [11] 86 % of control | [12] 104 % of control | [13] 93 % of control

C#CCOC(=O)CCC(=O)OCC#C
inactive: [6] 103 % of control | dose: 100.0 mg/kg/injection, schedule: Q01DX009 (ip), vehicle: saline 94 % of control | dose: 100.0 mg/kg/injection, schedule: Q04DX003 (ip), vehicle: saline 94 % of control | [7] 100 % of control | dose: 200.0 mg/kg/injection, schedule: Q01DX009 (ip), vehicle: saline 97 % of control | dose: 200.0 mg/kg/injection, schedule: Q04DX003 (ip), vehicle: saline 96 % of control | [8] 100 % of control | dose: 400.0 mg/kg/injection, schedule: Q01DX009 (ip), vehicle: saline 94 % of control | dose: 400.0 mg/kg/injection, schedule: Q04DX003 (ip), vehicle: saline 98 % of control

O=C(CCCl)NCCCCCCNC(=O)CCCl
inactive: [6] 100 % of control | [7] 89 % of control | [8] 90 % of control

c1ccc(-c2ccc(-c3cnc(-c4ccccc4)[nH]3)cc2)cc1
inactive: [14] 95 % of control | [15] 92 % of control | [16] 92 % of control

NC(=O)C1C2C=CC(O2)C1C(=O)O (stereo not drawn)
inactive: dose: 12.5 mg/kg/injection, schedule: Q04DX002 (ip), vehicle: saline 111 % of control | [4] 97 % of control | [5] 103 % of control

Cc1ccc(C(C)(O)c2cnc(C)n2Cc2ccccc2)cc1 (stereo not drawn)
inactive: [14] 97 % of control | [9] 95 % of control and 113 % of control | [17] 110 % of control and 92 % of control | [10] 101 % of control | [15] 97 % of control | [11] 98 % of control and 102 % of control | dose: 200.0 mg/kg/injection, schedule: Q04DX002 (ip), vehicle: saline with Tween-80 95 % of control and 97 % of control | [12] 103 % of control | [16] 91 % of control | dose: 400.0 mg/kg/injection, schedule: Q01DX009 (ip), vehicle: saline with Tween-80 91 % of control and 92 % of control | [18] 103 % of control and 88 % of control | [13] 98 % of control

COc1ccc([N+](=O)[O-])cc1NC(=O)Nc1ccc(S(N)(=O)=O)cc1
inactive: [19] 101 % of control | [20] 92 % of control | [21] 94 % of control

O=[N+]([O-])C1CCC2CCC3CCCC1C32 (stereo not drawn)
inactive: dose: 25.0 mg/kg/injection, schedule: Q04DX002 (ip), vehicle: saline with Tween-80 97 % of control | dose: 50.0 mg/kg/injection, schedule: Q04DX002 (ip), vehicle: saline with Tween-80 91 % of control | [17] 101 % of control and 102 % of control | [18] 93 % of control

OCC1(CO)CCC1(CO)CO
inactive: dose: 75.0 mg/kg/injection, schedule: Q01DX001 (ip), vehicle: saline 106 % of control | dose: 75.0 mg/kg/injection, schedule: Q01DX009 (ip), vehicle: saline 105 % of control | dose: 150.0 mg/kg/injection, schedule: Q01DX001 (ip), vehicle: saline 102 % of control | dose: 150.0 mg/kg/injection, schedule: Q01DX009 (ip), vehicle: saline 105 % of control | dose: 300.0 mg/kg/injection, schedule: Q01DX001 (ip), vehicle: saline 98 % of control | dose: 300.0 mg/kg/injection, schedule: Q01DX009 (ip), vehicle: saline 97 % of control

CC(=O)OC1C=CCC2C(=O)C3=C(C(=O)c4ccccc4C3=O)C(=O)C12 (stereo not drawn)
inactive: dose: 0.25 mg/kg/injection, schedule: Q04DX003 (ip), vehicle: saline with Tween-80 93 % of control | dose: 0.5 mg/kg/injection, schedule: Q04DX003 (ip), vehicle: saline with Tween-80 93 % of control | dose: 1.0 mg/kg/injection, schedule: Q04DX003 (ip), vehicle: saline with Tween-80 89 % of control | dose: 2.0 mg/kg/injection, schedule: Q04DX003 (ip), vehicle: saline with Tween-80 97 % of control | dose: 4.0 mg/kg/injection, schedule: Q04DX003 (ip), vehicle: saline with Tween-80 107 % of control | dose: 6.0 mg/kg/injection, schedule: Q04DX003 (ip), vehicle: saline with Tween-80 103 % of control | dose: 8.0 mg/kg/injection, schedule: Q04DX003 (ip), vehicle: saline with Tween-80 98 % of control | dose: 12.0 mg/kg/injection, schedule: Q04DX003 (ip), vehicle: saline with Tween-80 97 % of control | dose: 16.0 mg/kg/injection, schedule: Q04DX003 (ip), vehicle: saline with Tween-80 98 % of control | dose: 24.0 mg/kg/injection, schedule: Q04DX003 (ip), vehicle: saline with Tween-80 97 % of control | dose: 32.0 mg/kg/injection, schedule: Q04DX003 (ip), vehicle: saline with Tween-80 104 % of control | dose: 48.0 mg/kg/injection, schedule: Q04DX003 (ip), vehicle: saline with Tween-80 97 % of control | dose: 64.0 mg/kg/injection, schedule: Q04DX003 (ip), vehicle: saline with Tween-80 100 % of control | dose: 128.0 mg/kg/injection, schedule: Q04DX003 (ip), vehicle: saline with Tween-80 100 % of control

CCCCCCCCCCCCCCCOc1cc(C=O)ccc1OC
inactive: dose: 100.0 mg/kg/injection, schedule: Q01DX001 (ip), vehicle: Klucel (hydroxypropylcellulose) (HPC) 87 % of control | dose: 200.0 mg/kg/injection, schedule: Q01DX001 (ip), vehicle: Klucel (hydroxypropylcellulose) (HPC) 87 % of control

O=C1c2c(c(-c3ccccc3)c3ccccc3c2-c2ccccc2)C(=O)C2C(c3ccccc3)c3ccccc3C(c3ccccc3)C12 (stereo not drawn)
inactive: [1] 113 % of control | [2] 106 % of control | [3] 98 % of control

COc1ccc(NC(=O)Nc2ccc(SC)cc2)c(Cl)c1
inactive: [19] 107 % of control | [20] 93 % of control | [21] 104 % of control
